# Measurements: PubChem BioAssay (NCI)
#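 All cell lines were grown in 96-well plates and treated with compound for 48 hours. Definition used: TGI = concentration required for complete inhibition of growth.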
# Columns and labels:
# Assay in all cases: NCI tumour cell line growth inhibition, 48 h
# SNB-78 CNS = tested on: SNB-78 CNS
# BT-549 breast = tested on: BT-549 breast
# OVCAR-8 ovarian = tested on: OVCAR-8 ovarian
# HCT-15 colon = tested on: HCT-15 colon
# SK-MEL-28 melanoma = tested on: SK-MEL-28 melanoma
# DU-145 prostate = tested on: DU-145 prostate
# P388/ADR leukemia = tested on: P388/ADR leukemia
# RXF 393 renal = tested on: RXF 393 renal
# ACHN renal = tested on: ACHN renal
# P388 leukemia = tested on: P388 leukemia
# SF-295 CNS = tested on: SF-295 CNS
# SNB-19 CNS = tested on: SNB-19 CNS
# KM12 colon = tested on: KM12 colon
# HCT-116 colon = tested on: HCT-116 colon
# KM20L2 colon = tested on: KM20L2 colon
# SNB-75 CNS = tested on: SNB-75 CNS
# NCI/ADR-RES ovarian = tested on: NCI/ADR-RES ovarian
# DMS 114 small cell lung = tested on: DMS 114 small cell lung
# UACC-257 melanoma = tested on: UACC-257 melanoma
# MALME-3M melanoma = tested on: MALME-3M melanoma
# SN12C renal = tested on: SN12C renal
# SF-539 CNS = tested on: SF-539 CNS
# HOP-62 NSCLC = tested on: HOP-62 NSCLC
# HT29 colon = tested on: HT29 colon
# COLO 205 colon = tested on: COLO 205 colon
# T-47D breast = tested on: T-47D breast
# HL-60(TB) leukemia = tested on: HL-60(TB) leukemia
# OVCAR-5 ovarian = tested on: OVCAR-5 ovarian
# UACC-62 melanoma = tested on: UACC-62 melanoma
# MDA-MB-231 breast = tested on: MDA-MB-231 breast
# MDA-MB-435 = tested on: MDA-MB-435
# M14 melanoma = tested on: M14 melanoma
# RPMI-8226 leukemia = tested on: RPMI-8226 leukemia
# MOLT-4 leukemia = tested on: MOLT-4 leukemia
# SK-MEL-2 melanoma = tested on: SK-MEL-2 melanoma
# PC-3 prostate = tested on: PC-3 prostate
# CAKI-1 renal = tested on: CAKI-1 renal
# SK-OV-3 ovarian = tested on: SK-OV-3 ovarian
# NCI-H522 lung = tested on: NCI-H522 lung
# TK-10 renal = tested on: TK-10 renal
# OVCAR-3 ovarian = tested on: OVCAR-3 ovarian
# NCI-H23 lung = tested on: NCI-H23 lung
# HOP-18 NSCLC = tested on: HOP-18 NSCLC
# M19-MEL melanoma = tested on: M19-MEL melanoma
# HCC-2998 colon = tested on: HCC-2998 colon
# K-562 leukemia = tested on: K-562 leukemia
# OVCAR-4 ovarian = tested on: OVCAR-4 ovarian
# DMS 273 small cell lung = tested on: DMS 273 small cell lung
# EKVX NSCLC = tested on: EKVX NSCLC
# U251 CNS = tested on: U251 CNS
# IGROV1 ovarian = tested on: IGROV1 ovarian
# MCF7 breast = tested on: MCF7 breast
# 786-0 renal = tested on: 786-0 renal
# NCI-H226 lung = tested on: NCI-H226 lung
# SN12K1 renal = tested on: SN12K1 renal
# SF-268 CNS = tested on: SF-268 CNS
# SW-620 colon = tested on: SW-620 colon
# SK-MEL-5 melanoma = tested on: SK-MEL-5 melanoma
# LXFL 529 NSCLC = tested on: LXFL 529 NSCLC
# HS 578T breast = tested on: HS 578T breast
# MDA-N = tested on: MDA-N
# A498 renal = tested on: A498 renal
# HOP-92 NSCLC = tested on: HOP-92 NSCLC
# LOX IMVI melanoma = tested on: LOX IMVI melanoma
# UO-31 renal = tested on: UO-31 renal
# DLD-1 colon = tested on: DLD-1 colon
# SR leukemia = tested on: SR leukemia
# CCRF-CEM leukemia = tested on: CCRF-CEM leukemia
# NCI-H460 lung = tested on: NCI-H460 lung
# A549 NSCLC = tested on: A549 NSCLC
# XF 498 CNS = tested on: XF 498 CNS
# RXF-631 renal = tested on: RXF-631 renal
smiles,measurement,setting,value
COc1cc(/C=C/C(=O)Oc2ccc(NC(C)=O)cc2)ccc1C(=O)OCc1ccccc1,TGI,SNB-78 CNS,> 89.4 µM
same,TGI,BT-549 breast,> 100 µM
same,TGI,OVCAR-8 ovarian,> 100 µM
same,TGI,HCT-15 colon,> 100 µM
same,TGI,SK-MEL-28 melanoma,> 100 µM
same,TGI,DU-145 prostate,> 100 µM
same,TGI,P388/ADR leukemia,> 100 µM
same,TGI,RXF 393 renal,58.3 µM
same,TGI,ACHN renal,> 100 µM
same,TGI,P388 leukemia,> 100 µM
same,TGI,SF-295 CNS,> 89.3 µM
same,TGI,SNB-19 CNS,> 91.2 µM
same,TGI,KM12 colon,> 100 µM
same,TGI,HCT-116 colon,> 100 µM
same,TGI,KM20L2 colon,> 100 µM
same,TGI,SNB-75 CNS,47.6 µM
same,TGI,NCI/ADR-RES ovarian,> 100 µM
same,TGI,DMS 114 small cell lung,> 100 µM
same,TGI,UACC-257 melanoma,> 100 µM
same,TGI,MALME-3M melanoma,> 100 µM
same,TGI,SN12C renal,> 100 µM
same,TGI,SF-539 CNS,60.8 µM
same,TGI,HOP-62 NSCLC,> 91.3 µM
same,TGI,HT29 colon,> 100 µM
same,TGI,COLO 205 colon,> 100 µM
same,TGI,T-47D breast,> 100 µM
same,TGI,HL-60(TB) leukemia,> 100 µM
same,TGI,OVCAR-5 ovarian,> 100 µM
same,TGI,UACC-62 melanoma,> 97.1 µM
same,TGI,MDA-MB-231 breast,> 100 µM
same,TGI,MDA-MB-435,> 100 µM
same,TGI,M14 melanoma,> 100 µM
same,TGI,RPMI-8226 leukemia,> 100 µM
same,TGI,MOLT-4 leukemia,> 100 µM
same,TGI,SK-MEL-2 melanoma,99.8 µM
same,TGI,PC-3 prostate,> 100 µM
same,TGI,CAKI-1 renal,> 100 µM
same,TGI,SK-OV-3 ovarian,> 92 µM
same,TGI,NCI-H522 lung,> 100 µM
same,TGI,TK-10 renal,> 100 µM
same,TGI,OVCAR-3 ovarian,> 100 µM
same,TGI,NCI-H23 lung,> 100 µM
same,TGI,HOP-18 NSCLC,> 100 µM
same,TGI,M19-MEL melanoma,> 100 µM
same,TGI,HCC-2998 colon,> 100 µM
same,TGI,K-562 leukemia,> 100 µM
same,TGI,OVCAR-4 ovarian,> 100 µM
same,TGI,DMS 273 small cell lung,> 100 µM
same,TGI,EKVX NSCLC,> 100 µM
same,TGI,U251 CNS,> 78.7 µM
same,TGI,IGROV1 ovarian,> 93.2 µM
same,TGI,MCF7 breast,> 100 µM
same,TGI,786-0 renal,> 100 µM
same,TGI,NCI-H226 lung,> 100 µM
same,TGI,SN12K1 renal,> 100 µM
same,TGI,SF-268 CNS,> 100 µM
same,TGI,SW-620 colon,> 100 µM
same,TGI,SK-MEL-5 melanoma,> 100 µM
same,TGI,LXFL 529 NSCLC,> 100 µM
same,TGI,HS 578T breast,> 100 µM
same,TGI,MDA-N,> 100 µM
same,TGI,A498 renal,> 100 µM
same,TGI,HOP-92 NSCLC,> 100 µM
same,TGI,LOX IMVI melanoma,> 100 µM
same,TGI,UO-31 renal,> 100 µM
same,TGI,DLD-1 colon,> 100 µM
same,TGI,SR leukemia,> 100 µM
same,TGI,CCRF-CEM leukemia,> 100 µM
same,TGI,NCI-H460 lung,> 100 µM
same,TGI,A549 NSCLC,> 100 µM
same,TGI,XF 498 CNS,> 70.2 µM
CCOC(=O)/C(=C\c1ccccc1)C(=O)CCN1CCOCC1,TGI,SNB-78 CNS,36.5 µM
same,TGI,BT-549 breast,33.6 µM
same,TGI,OVCAR-8 ovarian,18.4 µM
same,TGI,HCT-15 colon,9.63 µM
same,TGI,SK-MEL-28 melanoma,10.1 µM
same,TGI,DU-145 prostate,39.2 µM
same,TGI,P388/ADR leukemia,> 21.7 µM
same,TGI,RXF 393 renal,6.09 µM
same,TGI,ACHN renal,13.4 µM
same,TGI,P388 leukemia,3.66 µM
same,TGI,SF-295 CNS,38.3 µM
same,TGI,SNB-19 CNS,51.5 µM
same,TGI,KM12 colon,23.1 µM
same,TGI,HCT-116 colon,34.9 µM
same,TGI,KM20L2 colon,30.9 µM
same,TGI,SNB-75 CNS,38.3 µM
same,TGI,NCI/ADR-RES ovarian,32.5 µM
same,TGI,DMS 114 small cell lung,14.6 µM
same,TGI,UACC-257 melanoma,11 µM
same,TGI,MALME-3M melanoma,7.85 µM
same,TGI,SN12C renal,19.7 µM
same,TGI,SF-539 CNS,16 µM
same,TGI,HOP-62 NSCLC,40.8 µM
same,TGI,HT29 colon,25.1 µM
same,TGI,COLO 205 colon,8.93 µM
same,TGI,T-47D breast,40.5 µM
same,TGI,HL-60(TB) leukemia,3.38 µM
same,TGI,OVCAR-5 ovarian,31.8 µM
same,TGI,UACC-62 melanoma,12.5 µM
same,TGI,MDA-MB-231 breast,27.1 µM
same,TGI,MDA-MB-435,40.1 µM
same,TGI,M14 melanoma,18 µM
same,TGI,RPMI-8226 leukemia,6.07 µM
same,TGI,RXF-631 renal,28.8 µM
same,TGI,MOLT-4 leukemia,5.3 µM
same,TGI,SK-MEL-2 melanoma,42.4 µM
same,TGI,PC-3 prostate,24.7 µM
same,TGI,CAKI-1 renal,9.51 µM
same,TGI,SK-OV-3 ovarian,50.5 µM
same,TGI,NCI-H522 lung,3.43 µM
same,TGI,TK-10 renal,19.9 µM
same,TGI,OVCAR-3 ovarian,18.6 µM
same,TGI,NCI-H23 lung,24.9 µM
same,TGI,HOP-18 NSCLC,28.6 µM
same,TGI,M19-MEL melanoma,11.8 µM
same,TGI,HCC-2998 colon,32.6 µM
same,TGI,K-562 leukemia,4.87 µM
same,TGI,OVCAR-4 ovarian,33.6 µM
same,TGI,DMS 273 small cell lung,27.3 µM
same,TGI,EKVX NSCLC,34.7 µM
same,TGI,U251 CNS,21.6 µM
same,TGI,IGROV1 ovarian,29.9 µM
same,TGI,MCF7 breast,23.8 µM
same,TGI,786-0 renal,21.9 µM
same,TGI,NCI-H226 lung,45.9 µM
same,TGI,SN12K1 renal,19.4 µM
same,TGI,SF-268 CNS,27.8 µM
same,TGI,SW-620 colon,5.19 µM
same,TGI,SK-MEL-5 melanoma,25.3 µM
same,TGI,LXFL 529 NSCLC,3.52 µM
same,TGI,HS 578T breast,> 100 µM
same,TGI,MDA-N,18.7 µM
same,TGI,A498 renal,31.1 µM
same,TGI,HOP-92 NSCLC,17.2 µM
same,TGI,LOX IMVI melanoma,8.54 µM
same,TGI,UO-31 renal,31.2 µM
same,TGI,DLD-1 colon,6.96 µM
same,TGI,SR leukemia,9.11 µM
same,TGI,CCRF-CEM leukemia,3.95 µM
same,TGI,NCI-H460 lung,30 µM
same,TGI,A549 NSCLC,53.1 µM
